Data as given in the supplement of paper PMC10307832.

Experiments:
Experiment in all cases: relative viability (nuclei count vs DMSO), 5 days (fraction); higher = more cells survive
[1] = compound: O=C(C[C@H]1NCCC[C@@H]1O)Cn1cnc2cc(Br)c(Cl)cc2c1=O (racemic) [Halofuginone] + CS(=O)(=O)CCNCc1ccc(-c2ccc3ncnc(Nc4ccc(OCc5cccc(F)c5)c(Cl)c4)c3c2)o1 [Lapatinib] (partner 2 µM)
Summary of the method: (§1)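 Values are medians from duplicate plates. Each reflects relative viability, defined as the nuclei count of treated wells over that of vehicle wells. Lung cancer cell lines in 1536-well plates were pin-tool dosed one day after seeding with one drug alone or with a fixed anchor-drug dose plus five library-drug doses (not always all listed) in √10 steps, then fixed, stained and imaged at 4× after 5 days.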

[2] = compound: COc1cc2c(Oc3ccc4[nH]c(C)cc4c3F)ncnc2cc1OCCCN1CCCC1 [Cediranib] + Cc1cc(Nc2cc(N3CCN(C)CC3)nc(Sc3ccc(NC(=O)C4CC4)cc3)n2)n[nH]1 [Tozasertib] (partner 0.1 µM)
Summary of the method: as §1

[3] = compound: Nc1ncn([C@H]2C[C@H](O)[C@@H](CO)O2)c(=O)n1 [Decitabine] + CCNC(=O)c1noc(-c2cc(C(C)C)c(O)cc2O)c1-c1ccc(CN2CCOCC2)cc1 [Luminespib] (partner 0.01 µM)
Summary of the method: as §1

[4] = compound: O=C(C[C@H]1NCCC[C@@H]1O)Cn1cnc2cc(Br)c(Cl)cc2c1=O (racemic) [Halofuginone] + N=C(N)NC(=N)NCCc1ccccc1 [Phenformin] (partner 250 µM)
Summary of the method: as §1

| Cell Line | relative viability ([1]; first compound 0.001 µM) | relative viability ([1]; first compound 0.003162 µM) | relative viability ([1]; first compound 0.01 µM) | relative viability ([1]; first compound 0.03162 µM) | relative viability ([1]; first compound 0.1 µM) | relative viability ([2]; first compound 0.04 µM) | relative viability ([2]; first compound 0.1265 µM) | relative viability ([2]; first compound 0.4 µM) | relative viability ([2]; first compound 1.265 µM) | relative viability ([2]; first compound 4 µM) | relative viability ([3]; first compound 0.04 µM) | relative viability ([3]; first compound 0.1265 µM) | relative viability ([3]; first compound 0.4 µM) | relative viability ([3]; first compound 1.265 µM) | relative viability ([3]; first compound 4 µM) | relative viability ([4]; first compound 0.001 µM) | relative viability ([4]; first compound 0.003162 µM) | relative viability ([4]; first compound 0.01 µM) | relative viability ([4]; first compound 0.03162 µM) | relative viability ([4]; first compound 0.1 µM) |
| --- | --- | --- | --- | --- | --- | --- | --- | --- | --- | --- | --- | --- | --- | --- | --- | --- | --- | --- | --- | --- |
| LCLC-97TM1 | 0.72 | 0.881 | 1.02 | 0.754 | 0.825 | 0.217 | 0.224 | 0.191 | 0.227 | 0.229 | 0.403 | 0.48 | 0.322 | 0.143 | 0.159 | 0.4 | 0.408 | 0.351 | 0.417 | 0.332 |
| LK-2 | 1.01 | 0.801 | 0.951 | 0.891 | 0.778 | 0.195 | 0.156 | 0.175 | 0.194 | 0.162 | 0.196 | 0.193 | 0.156 | 0.214 | 0.17 | 0.627 | 0.598 | 0.404 | 0.372 | 0.221 |
| LOU-NH91 | 0.77 | 0.746 | 0.747 | 0.738 | 0.676 | 0.473 | 0.67 | 0.646 | 0.708 | 0.658 | 0.323 | 0.344 | 0.358 | 0.299 | 0.35 | 0.75 | 0.686 | 0.65 | 0.786 | 0.628 |
| LU99A | 0.985 | 0.965 | 0.892 | 0.934 | 0.607 | 0.292 | 0.285 | 0.285 | 0.286 | 0.292 | 0.248 | 0.24 | 0.318 | 0.251 | 0.24 | 0.945 | 1.08 | 0.841 | 0.764 | 0.735 |
| LXF-289 | 0.891 | 0.893 | 0.847 | 0.874 | 0.895 | 0.231 | 0.219 | 0.212 | 0.212 | 0.2 | 0.418 | 0.313 | 0.261 | 0.222 | 0.196 | 0.533 | 0.519 | 0.498 | 0.508 | 0.507 |
| NCI-H23 | 1.28 | 1.03 | 1.2 | 0.713 | 0.707 | 0.43 | – | 0.365 | 0.399 | 0.395 | 0.215 | 0.213 | 0.202 | 0.199 | 0.203 | 0.774 | 0.762 | 0.757 | 0.806 | 0.669 |
| NCI-H322M | 0.47 | 0.583 | 0.585 | 0.607 | 0.493 | 0.484 | 0.564 | 0.473 | 0.424 | 0.486 | 0.77 | 0.835 | 0.669 | 0.441 | 0.489 | 0.783 | 0.728 | 0.721 | 0.566 | 0.478 |
| NCI-H358 | 0.56 | 0.432 | 0.376 | 0.282 | 0.232 | 0.123 | 0.0968 | 0.0956 | 0.105 | 0.101 | 0.073 | 0.206 | 0.247 | 0.199 | 0.1 | 0.303 | 0.312 | 0.261 | 0.189 | 0.079 |
| NCI-H460 | 0.948 | 1.27 | 0.967 | 0.573 | 0.11 | 0.494 | 0.391 | 0.429 | 0.603 | 0.355 | 0.0345 | 0.0356 | 0.0279 | 0.034 | 0.0328 | 0.512 | 0.549 | 0.543 | 0.493 | 0.126 |
| NCI-H520 | 0.98 | 0.811 | 0.96 | 0.704 | 0.401 | 0.57 | 0.35 | 0.543 | – | 0.426 | 0.212 | 0.214 | 0.214 | 0.254 | 0.239 | 0.606 | 0.78 | 0.569 | 0.582 | 0.193 |
| NCI-H596 | 1.06 | 1.18 | 1.02 | 1.07 | 0.661 | 1.13 | 0.891 | 0.782 | – | 0.986 | 0.9 | 1.01 | – | 0.696 | 0.739 | 0.732 | 0.84 | 0.742 | 0.938 | 0.569 |
| NCI-H647 | 1.14 | 1.07 | 1.04 | 1.02 | 0.533 | 0.306 | 0.225 | 0.3 | 0.227 | 0.255 | 0.105 | 0.141 | 0.127 | 0.12 | 0.103 | 0.659 | 0.642 | 0.544 | 0.368 | 0.195 |
| NCI-H650 | 1.12 | 0.48 | 1 | 0.775 | 0.515 | 0.739 | 0.563 | 0.709 | 0.774 | 0.707 | 0.627 | 0.652 | 0.489 | 0.314 | 0.315 | 0.507 | 0.501 | 0.437 | 0.424 | 0.374 |
| NCI-H661 | 0.558 | 0.546 | 0.424 | 0.508 | 0.366 | 0.255 | 0.365 | 0.338 | 0.349 | 0.372 | 0.937 | 0.771 | 0.628 | 0.534 | 0.452 | 0.296 | 0.298 | 0.295 | 0.274 | 0.284 |
| NCI-H727 | 0.704 | 0.676 | 0.949 | 0.798 | 0.508 | – | 0.591 | 0.536 | 0.762 | 0.549 | 0.499 | 0.289 | 0.339 | 0.288 | 0.407 | 0.784 | 0.577 | 0.422 | 0.628 | 0.317 |
| NCI-H838 | 1.25 | 1.16 | 0.891 | 0.748 | 0.164 | 0.272 | 0.264 | 0.229 | 0.297 | 0.276 | 0.213 | 0.188 | 0.296 | 0.191 | 0.165 | 0.668 | 0.713 | 0.525 | 0.347 | 0.199 |
